In PMC6393295, “Archaeal NSUN6 catalyzes m^5C72 modification on a wide-range of specific tRNAs” (Nucleic Acids Research, 2018):

Key:
PhNSun6 (PH1991) [1] = biological target: T1, PhNSun6 (PH1991) (Pyrococcus horikoshii, UniProt O57712); assay: X-ray crystal structure of the complex, […] A; assay type: binding; conditions: co-crystallised with 1 mM ligand, pH 6.5, 16 °C; Rossmann-fold cofactor site; no tRNA
T1 construct: full length (domains mapped to residues 1-389); E. coli Rosetta (DE3); 2 chains in P1 crystal
T1 sequence (O57712 1-389): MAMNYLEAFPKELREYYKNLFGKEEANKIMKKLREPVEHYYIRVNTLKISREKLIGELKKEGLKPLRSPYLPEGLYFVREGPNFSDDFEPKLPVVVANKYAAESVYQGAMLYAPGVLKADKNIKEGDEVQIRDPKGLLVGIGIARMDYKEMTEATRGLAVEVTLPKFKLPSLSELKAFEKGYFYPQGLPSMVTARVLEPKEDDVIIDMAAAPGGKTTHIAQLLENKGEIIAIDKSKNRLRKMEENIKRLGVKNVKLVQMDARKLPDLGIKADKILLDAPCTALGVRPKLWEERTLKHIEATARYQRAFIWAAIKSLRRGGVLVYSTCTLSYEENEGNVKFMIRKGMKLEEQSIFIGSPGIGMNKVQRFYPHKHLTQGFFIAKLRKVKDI

PhNSun6 (PH1991) [2] = biological target: T1, PhNSun6 (PH1991); assay: X-ray crystal structure of the complex, […] A; assay type: binding; conditions: co-crystallised with 1 mM ligand, pH 6.5, 16 °C, Rossmann-fold cofactor site, no tRNA

**Q.** Which “X-ray crystal structure of the complex, 2.18 A” value (PhNSun6 (PH1991) [1]) does the source give for `Nc1ncnc2c1ncn2[C@@H]1O[C@H](CSCC[C@H](N)C(=O)O)[C@@H](O)[C@H]1O` [SAH, S-adenosyl-homocysteine] here?
**A.** form the binding pocket for the cofactor SAH, as shown in Figure 5B

**Q.** Which “X-ray crystal structure of the complex, 2.50 A” value (PhNSun6 (PH1991) [2]; methyl donor, also turned over with tRNA at 65 °C, pH 7.5) does the source give for `C[S+](CC[C@H](N)C(=O)O)C[C@H]1O[C@@H](n2cnc3c(N)ncnc32)[C@H](O)[C@@H]1O` (stereo partly drawn) [SAM, S-adenosyl-methionine] here?
**A.** PhNSun6 complexed with SAM, SFG and SAH

**Q.** How did the “X-ray crystal structure of the complex, 2.50 A” value (PhNSun6 (PH1991) [2]) turn out when `Nc1ncnc2c1ncn2[C@@H]1O[C@H](C[C@@H](N)CC[C@H](N)C(=O)O)[C@@H](O)[C@H]1O` [SFG, sinefungin] was run?
**A.** PhNSun6 complexed with SAM, SFG and SAH
